Experimental data from ChEMBL document CHEMBL1201862, “PubChem BioAssay data set” (2004).
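Dose response: 5 concentrations. Exposure: 48 h. Format: 96-well plates. Endpoint: linear interpolation; highest concentration if not reached. The concentration for 50% growth inhibition is given as GI50.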 The source made the active and inactive calls. Rule as the data show it: active = GI50 up to about 1.1 µM and inactive = higher.

Legend:
Test in all cases: inhibition of tumour cell growth, NCI panel, 48 h
[1] = tested on: 786-0
[2] = tested on: A498
[3] = tested on: A549
[4] = tested on: ACHN
[5] = tested on: CAKI-1
[6] = tested on: CCRF-CEM
[7] = tested on: COLO 205
[8] = tested on: DLD-1
[9] = tested on: DMS-114
[10] = tested on: DMS-273
[11] = tested on: EKVX
[12] = tested on: HCC 2998
[13] = tested on: HCT-116
[14] = tested on: HCT-15
[15] = tested on: HL-60
[16] = tested on: HOP-18
[17] = tested on: HOP-62
[18] = tested on: HOP-92
[19] = tested on: HT-29
[20] = tested on: IGROV-1
[21] = tested on: K562
[22] = tested on: KM-20L2
[23] = tested on: KM12
[24] = tested on: LOX IMVI
[25] = tested on: LXFL 529
[26] = tested on: M14
[27] = tested on: M19-MEL
[28] = tested on: MOLT-4
[29] = tested on: Malme-3M
[30] = tested on: NCI-H226
[31] = tested on: NCI-H23
[32] = tested on: NCI-H460
[33] = tested on: NCI-H522
[34] = tested on: OVCAR-3
[35] = tested on: OVCAR-4
[36] = tested on: OVCAR-5
[37] = tested on: OVCAR-8
[38] = tested on: RPMI-8226
[39] = tested on: RXF 393
[40] = tested on: RXF 631
[41] = tested on: SF-268
[42] = tested on: SF-295
[43] = tested on: SF-539
[44] = tested on: SK-MEL-2
[45] = tested on: SK-MEL-5
[46] = tested on: SK-OV-3
[47] = tested on: SN12C
[48] = tested on: SNB-19
[49] = tested on: SNB-75
[50] = tested on: SNB-78
[51] = tested on: SR
[52] = tested on: SW-620
[53] = tested on: TK-10
[54] = tested on: U-251
[55] = tested on: UACC-257
[56] = tested on: UACC-62
[57] = tested on: UO-31
[58] = tested on: XF498
[59] = tested on: SK-MEL-28

COc1ccc(OC)c(NC(=O)CCC/C(CC(=O)c2ccc(O)c(OC)c2)=N\Nc2ccc([N+](=O)[O-])cc2)c1
GI50 [1]: 27.6 µM (inactive)
GI50 [2]: > 100 µM (inactive)
GI50 [3]: > 100 µM (inactive)
GI50 [4]: 80.4 µM (inactive)
GI50 [5]: > 100 µM (inactive)
GI50 [6]: 68.2 µM (inactive)
GI50 [7]: > 100 µM (inactive)
GI50 [8]: > 100 µM (inactive)
GI50 [9]: > 100 µM (inactive)
GI50 [10]: 57.3 µM (inactive)
GI50 [11]: 59 µM (inactive)
GI50 [12]: > 100 µM (inactive)
GI50 [13]: > 100 µM (inactive)
GI50 [14]: > 100 µM
GI50 [15]: > 100 µM (inactive)
GI50 [16]: > 100 µM (inactive)
GI50 [17]: 69.5 µM (inactive)
GI50 [18]: 34.3 µM (inactive)
GI50 [19]: > 100 µM (inactive)
GI50 [20]: > 100 µM (inactive)
GI50 [21]: 30.1 µM (inactive)
GI50 [22]: > 100 µM (inactive)
GI50 [23]: 94.6 µM (inactive)
GI50 [24]: 40.8 µM (inactive)
GI50 [25]: 32.7 µM (inactive)
GI50 [26]: > 100 µM (inactive)
GI50 [27]: > 100 µM (inactive)
GI50 [28]: > 100 µM (inactive)
GI50 [29]: > 100 µM (inactive)
GI50 [30]: > 100 µM (inactive)
GI50 [31]: 48.1 µM (inactive)
GI50 [32]: > 100 µM (inactive)
GI50 [33]: 45.9 µM (inactive)
GI50 [34]: > 100 µM (inactive)
GI50 [35]: > 100 µM (inactive)
GI50 [36]: > 100 µM (inactive)
GI50 [37]: 28.2 µM (inactive)
GI50 [38]: > 100 µM (inactive)
GI50 [39]: 19 µM (inactive)
GI50 [40]: 96.4 µM (inactive)
GI50 [41]: > 100 µM (inactive)
GI50 [42]: 52.8 µM (inactive)
GI50 [43]: 57.7 µM (inactive)
GI50 [44]: 51.8 µM (inactive)
GI50 [45]: > 100 µM (inactive)
GI50 [46]: 39 µM (inactive)
GI50 [47]: > 100 µM (inactive)
GI50 [48]: 26.6 µM (inactive)
GI50 [49]: 22.5 µM (inactive)
GI50 [50]: 43.6 µM (inactive)
GI50 [51]: > 100 µM (inactive)
GI50 [52]: > 100 µM (inactive)
GI50 [53]: 50.2 µM (inactive)
GI50 [54]: 32.1 µM (inactive)
GI50 [55]: > 100 µM (inactive)
GI50 [56]: 48.8 µM (inactive)
GI50 [57]: 83 µM (inactive)
GI50 [58]: 41.1 µM (inactive)

CC(=O)NC(CCCCNC(=O)NCCCl)C(=O)NCc1ccccc1 (stereo unspecified)
GI50 [1]: > 100 µM (inactive)
GI50 [3]: > 100 µM (inactive)
GI50 [4]: > 100 µM (inactive)
GI50 [5]: > 100 µM (inactive)
GI50 [6]: > 100 µM (inactive)
GI50 [7]: > 100 µM (inactive)
GI50 [8]: > 100 µM (inactive)
GI50 [9]: > 100 µM (inactive)
GI50 [10]: > 100 µM (inactive)
GI50 [11]: > 100 µM (inactive)
GI50 [12]: > 100 µM (inactive)
GI50 [13]: > 100 µM (inactive)
GI50 [14]: > 100 µM
GI50 [15]: > 100 µM (inactive)
GI50 [16]: > 100 µM (inactive)
GI50 [17]: > 100 µM (inactive)
GI50 [18]: > 100 µM (inactive)
GI50 [19]: > 100 µM (inactive)
GI50 [21]: > 100 µM (inactive)
GI50 [22]: > 100 µM (inactive)
GI50 [23]: > 100 µM (inactive)
GI50 [25]: > 100 µM (inactive)
GI50 [26]: > 100 µM (inactive)
GI50 [27]: > 100 µM (inactive)
GI50 [28]: > 100 µM (inactive)
GI50 [29]: > 100 µM (inactive)
GI50 [30]: > 100 µM (inactive)
GI50 [31]: > 100 µM (inactive)
GI50 [32]: > 100 µM (inactive)
GI50 [33]: > 100 µM (inactive)
GI50 [34]: > 100 µM (inactive)
GI50 [35]: > 100 µM (inactive)
GI50 [37]: > 100 µM (inactive)
GI50 [38]: > 100 µM (inactive)
GI50 [39]: > 100 µM (inactive)
GI50 [40]: > 100 µM (inactive)
GI50 [41]: > 100 µM (inactive)
GI50 [42]: > 100 µM (inactive)
GI50 [43]: > 100 µM (inactive)
GI50 [59]: > 100 µM (inactive)
GI50 [44]: > 100 µM (inactive)
GI50 [45]: > 100 µM (inactive)
GI50 [47]: > 100 µM (inactive)
GI50 [48]: > 100 µM (inactive)
GI50 [49]: > 100 µM (inactive)
GI50 [51]: > 100 µM (inactive)
GI50 [52]: > 100 µM (inactive)
GI50 [53]: > 100 µM (inactive)
GI50 [54]: > 100 µM (inactive)
GI50 [55]: > 100 µM (inactive)
GI50 [56]: > 100 µM (inactive)
GI50 [57]: > 100 µM (inactive)
GI50 [58]: > 100 µM (inactive)
